The source of these data is publication PMC12040169 (PLOS Biology, 2025).

This series in a line: in vitro. The settings on record: human, hela cells, % viability.

As for `O=C(Nc1ccc2c(c1)oc1ccccc12)C1CCCO1` (stereo not shown) [CBK270168], the viability at 28.5 h, 10 µM stood at 81.9%.

For `Nc1ccc2ccc(-c3ccc4c(c3)CCO4)nc2n1` [CBK067625], the viability at 28.5 h, 10 µM was 90%.

With `O=C(Cn1cccn1)NC(Cc1cccs1)c1nccs1` (stereo not shown) [CBK285136], the viability at 28.5 h, 10 µM is 94.4%.

Regarding `O=C1NC(=O)N(Cc2ccccc2)C(=O)/C1=C/c1ccc(O)c(O)c1` [CBK278181], for the setting “bulk resorufin, single well”, the viability at 28.5 h, 10 µM turned out to be 117%.

Take `Cc1oc2nc(SCC(=O)NCc3cccnc3)nc(N)c2c1C` [CBK266178]: the viability at 28.5 h, 10 µM was 106%.

In the case of `COCCNc1nccnc1-c1ccccc1CO` [CBK038010], the viability at 28.5 h, 10 µM stood at 108%.

Regarding `CN1C(=O)CC2(C1=O)C(=O)N(CCCCOc1ccccc1)c1ccc(F)cc12` (stereo not shown) [CBK075408], the viability at 28.5 h, 10 µM came out at 96%.

As to `COc1ccc(/N=C2\S[C@H]3[C@H]([C@@H](O)[C@H](O)C[C@@H]3C(N)=O)N2Cc2ccc(F)cc2)cc1` [CBK288942], the viability at 28.5 h, 10 µM amounted to 90.5%.

As to `Cc1nn(C)cc1C(=O)N1CCCCC1c1nc2ccccc2[nH]1` (stereo not shown) [CBK283779], the viability at 28.5 h, 10 µM came to 84.7%.

Regarding `Cc1ccc2n1CCN(C(=O)c1cccc(-n3cnnc3)c1)C2C(C)C` (stereo not shown) [CBK282444], the viability at 28.5 h, 10 µM turned out to be 105%.

With `Cc1ccc(NC(=O)CN2C(=O)S/C(=C/c3ccc(-c4ccc(Cl)c(C(=O)O)c4)o3)C2=O)cc1` [CBK078256], the viability at 28.5 h, 10 µM amounted to 86.3%.

Regarding `COc1ccccc1NC(=O)C(=O)N/N=C/c1ccc(C(=O)O)cc1` [CBK262148], the viability at 28.5 h, 10 µM stood at 93.8%.

Take `Cc1ccc2nc(C(=O)NCCSc3nccn3C)cn2c1` [CBK281397]: the viability at 28.5 h, 10 µM came out at 93.4%.

As for `O=[N+]([O-])c1cccc(-c2cc(Nc3ccc4[nH]ccc4c3)ncn2)c1` [CBK090860], the viability at 28.5 h, 10 µM is 108%.

With `Cc1cccc(NCC(=O)N/N=C/c2cc3ccccc3nc2Cl)c1` [CBK261236], the viability at 28.5 h, 10 µM stood at 90%.

As for `COc1ccc(NCc2cc(=O)oc3cc4c(cc23)CCC4)cn1` [CBK235362], the viability at 28.5 h, 10 µM came to 88%.

As for `O=C(CC1S/C(=N/N=C/c2ccc(-c3cc([N+](=O)[O-])ccc3Cl)o2)NC1=O)Nc1ccccc1` (stereo not shown) [CBK264592], the viability at 28.5 h, 10 µM worked out at 95.3%.

As for `C=CCN1C(=O)C2(CC(=O)N(CC(=O)N(C)C)C2=O)c2cc(OC)ccc21` (stereo not shown) [CBK075227], the viability at 28.5 h, 10 µM is 92.3%.

As to `CCc1nnc(NS(=O)(=O)c2ccc(NCc3cc(Cl)ccc3O)cc2)s1` [CBK200051], the viability at 28.5 h, 10 µM was found to be 100%.

Turning to `CN(C)C(=O)CN1N=C(C(C)(C)C)Cn2c(cc3sccc32)C1=O` [CBK284116], the viability at 28.5 h, 10 µM was 89.5%.

In the case of `COc1ccc(Cl)cc1NC(=O)C1CCCN1S(=O)(=O)c1ccc(F)cc1` (stereo not shown) [CBK069866], the viability at 28.5 h, 10 µM is 108%.

Consider `O=C(O)c1ccccc1NS(=O)(=O)c1cccc(-n2sc3ccccc3c2=O)c1` [CBK116503], for which the viability at 28.5 h, 10 µM worked out at 94.7%.

Consider `O=C1NC2(CCc3ccccc31)CCN(Cc1ccncc1)C2` (stereo not shown) [CBK284610], for which the viability at 28.5 h, 10 µM stood at 99%.

For `O=S(=O)(Nc1nnn[nH]1)c1ccc(Cl)c(Cl)c1` [CBK062387], the viability at 28.5 h, 10 µM amounted to 106%.

`CCn1cc(C(=O)O)c(=O)c2cc(F)c(N3CCN(C(=S)Nc4ccc(F)c(Cl)c4)CC3)cc21` [CBK267921]: the viability at 28.5 h, 10 µM is 97.5%.

For `CCOC(=O)c1[nH]c(=O)[nH]c1CSc1ccccn1` [CBK027725], the viability at 28.5 h, 10 µM stood at 94%.

On to `CCOC(=O)N1CCC(NS(=O)(=O)Cc2ccccc2)CC1` [CBK045457], for which the viability at 28.5 h, 10 µM turned out to be 90.7%.

As for `CS(=O)(=O)Nc1cc(-c2noc([C@@H]3CCCN3Cc3ccc(S(C)(=O)=O)cc3)n2)ccn1` [CBK288890], the viability at 28.5 h, 10 µM was found to be 90.7%.

Take `Nc1ccc(Cc2ccc(N)c(O)c2)cc1O` [CBK261149]: the viability at 28.5 h, 10 µM is 100%.

As for `Cc1oc(C(=O)Nc2cccc(CCc3ccncc3)c2)cc1CN1CCOCC1` [CBK285547], the viability at 28.5 h, 10 µM came out at 92.8%.

Turning to `CCc1cc(CNC(=O)C2CC3C=CC2C32CC2)on1` (stereo not shown) [CBK282071], the viability at 28.5 h, 10 µM worked out at 102%.

For `O=C(Nc1cccc(N2CCNCC2)c1)c1cccnc1` [CBK029414T], the viability at 28.5 h, 10 µM worked out at 94.6%.

With `O=C(NC[C@H]1O[C@@H](CC(=O)N2CCN(c3ccccn3)CC2)[C@H](O)[C@@H]1O)C1CC1` [CBK288904], the viability at 28.5 h, 10 µM is 107%.

Consider `CCNC(=O)N(C)c1c(CC)nc2c(OCC3CCCCC3)cccn12` [CBK147795], for which the viability at 28.5 h, 10 µM stood at 108%.

With `Oc1cccc(/C=N/Nc2nncc(-c3ccccc3)n2)c1` [CBK262468], the viability at 28.5 h, 10 µM came out at 86.6%.

With `COc1cnc(C(=O)NCc2ccccc2Cl)cc1O` [CBK287993], the viability at 28.5 h, 10 µM was found to be 84.6%.

On to `C[C@H](NC(=O)Cn1cc(-c2ccc(CN3CCCC3)cc2)nn1)c1ccc(Br)cc1` [CBK167692], for which the viability at 28.5 h, 10 µM came out at 86%.

For the compound `CCOC(=O)Cc1csc(SC(C)C(=O)N2CCc3ccccc3C2)n1` (stereo not shown) [CBK305586], the viability at 28.5 h, 10 µM was 99.9%.

For the compound `c1ccc(C(CC2CCCCC2)NCc2cccnc2)cc1` (stereo not shown) [CBK073816], the viability at 28.5 h, 10 µM came to 96.3%.

Turning to `Cc1sc(NC(=O)c2ccc3c(c2)OCCO3)c(C(=O)NCc2cccnc2)c1C` [CBK268181], the viability at 28.5 h, 10 µM was found to be 90.8%.

Turning to `CCc1c(C)cc(C(=O)N(C)C(CC)c2ccccn2)c(=O)n1C` (stereo not shown) [CBK307078], the viability at 28.5 h, 10 µM amounted to 95.6%.

On to `Cn1ccnc1C1(O)CCN(C(=O)CCc2ccccc2)CC1` [CBK283542], for which the viability at 28.5 h, 10 µM is 92%.

For the compound `CC(C)(CO)CCCn1cncc1-c1cnn(-c2ccccc2)c1` [CBK281922], the viability at 28.5 h, 10 µM was found to be 96.9%.

For `COc1ccccc1NC(=O)c1sc2nc(N3CCOCC3)c3c(c2c1N)CCCC3` [CBK269247], the viability at 28.5 h, 10 µM came to 103%.

On to `O=C1C2C(c3ccccc3)NC(c3ccccc3)C1C(c1ccccc1)NC2c1ccccc1` (stereo not shown) [CBK260981], for which the viability at 28.5 h, 10 µM was determined as 93%.

For the compound `Cn1ccc(C2CCCCCN2C(=O)c2c(Cl)cnn2C)n1` (stereo not shown) [CBK284914], the viability at 28.5 h, 10 µM was determined as 102%.

Consider `Cc1c(C(=O)NC(C)c2ccncc2)oc2c(F)cccc12` (stereo not shown) [CBK282105], for which the viability at 28.5 h, 10 µM stood at 103%.

On to `O=C(C1CCCC1)N1CCC(n2nc(-c3cccs3)oc2=O)CC1` [CBK282424], for which the viability at 28.5 h, 10 µM is 87.5%.

In the case of `COc1ccc(CN2CCC3(CCc4ccccc4C(=O)N3)C2)cc1` (stereo not shown) [CBK283339], the viability at 28.5 h, 10 µM amounted to 97.6%.

Regarding `O=C(O)c1ccc(NC(=O)c2ccccc2NC(=O)c2cccc(Br)c2)cc1` [CBK265517], the viability at 28.5 h, 10 µM is 102%.

With `Fc1ccc(OCCCN2CCC3(CC2)OCCc2c3[nH]c3ccccc23)cc1` [CBK107736], the viability at 28.5 h, 10 µM came to 77%.

Turning to `COc1ccccc1CN(CC1CCNCC1)C(=O)NC(c1ccccc1)c1ccccc1` [CBK049741], the viability at 28.5 h, 10 µM was found to be 115%.

On to `COc1ccc2cc(C)c3n[nH]c(=O)n3c2c1` [CBK283765], for which the viability at 28.5 h, 10 µM was determined as 89%.

For the compound `O=C(O)C1CCCN1C(=O)c1ccc(C#CC2(O)CCCCC2)cc1` (stereo not shown) [CBK287022], the viability at 28.5 h, 10 µM was 105%.

Regarding `c1ncn(C2CCCCC2)c1C1CCCCC1` [CBK016758], the viability at 28.5 h, 10 µM turned out to be 101%.

Regarding `CN(C)/C=N/c1nc2c(nc(Br)n2C2CC(O)C(CO)O2)c(=O)[nH]1` (stereo not shown) [CBK201319], the viability at 28.5 h, 10 µM came to 84.7%.

Consider `Cc1nc(S)nc(O)c1Cc1ccc(C(=O)O)o1` [CBK266284], for which the viability at 28.5 h, 10 µM was determined as 104%.

On to `CS(=O)(=O)c1ccc(-c2ccc3c(c2)COC2(CCN(C(=O)Cc4cccc(C(F)(F)F)c4)CC2)O3)cn1` [CBK160595], for which, for the setting “bulk resorufin, single well”, the viability at 28.5 h, 10 µM was determined as 114%.

Regarding `CNC1(c2nnnn2CCOC(=O)Nc2ccc(Cl)cc2)CCCC1` [CBK266253], the viability at 28.5 h, 10 µM came out at 102%.

`CCCn1cc(CN2CCC(O)(c3ccc(C)cc3)CC2)cn1` [CBK282737]: the viability at 28.5 h, 10 µM amounted to 103%.

For `COc1cc(C(=O)N2CCC3(CC2)CC(=O)c2cc(C)ccc2O3)cc(-c2ccc(OC)c(OC)c2)c1` [CBK168271], the viability at 28.5 h, 10 µM was 88.9%.

Consider `CCNC(=O)N[C@H]1CO[C@H]2[C@@H]1OC[C@@H]2Nc1nccc(-c2cccc(F)c2)n1` [CBK289536], for which the viability at 28.5 h, 10 µM came out at 91.1%.

In the case of `Brc1cn2ccnc2c(NCCc2ccccn2)n1` [CBK066244], the viability at 28.5 h, 10 µM is 92.9%.

With `CCOC(=O)CCCCNC(O)C(Cl)(Cl)Cl` (stereo not shown) [CBK261003C], the viability at 28.5 h, 10 µM was 106%.

`Cc1cc2nc3c(nc2cc1C)CCNCC3` [CBK012302]: the viability at 28.5 h, 10 µM worked out at 91.1%.

With `COc1ccc(C)c2sc(NC(=O)c3sc(C)nc3C)nc12` [CBK287401], the viability at 28.5 h, 10 µM came out at 74%.

For the compound `Cc1cc(C)nc(NC(=N)NCc2ccccc2)n1` [CBK288157], the viability at 28.5 h, 10 µM turned out to be 94.2%.

On to `Cc1csc(C(Cc2ccsc2)NC(=O)C2CCOC2)n1` (stereo not shown) [CBK285150], for which the viability at 28.5 h, 10 µM is 94.9%.

In the case of `C(=N\c1ccc(-c2nc3ccc(/N=C/c4ccncc4)cc3[nH]2)cc1)/c1ccncc1` [CBK261681], the viability at 28.5 h, 10 µM turned out to be 89.8%.

With `CN1CCCN(c2cncc(-c3ccc(F)c(Cl)c3)n2)CC1` [CBK065297], the viability at 28.5 h, 10 µM worked out at 96.4%.

Consider `Cc1nc(-c2ccccc2)sc1CNC(=O)COc1ccc(F)cc1` [CBK092350], for which the viability at 28.5 h, 10 µM was 86.3%.

Turning to `O=C(c1cccc([N+](=O)[O-])c1)c1ccc2c(c1)C(=O)N(Cc1cccnc1)C2=O` [CBK262784], the viability at 28.5 h, 10 µM amounted to 80.1%.

On to `CN1CCN(CCCCC2(C)SC(NC3CCCCCC3)=NC2=O)CC1` (stereo not shown) [CBK113259], for which the viability at 28.5 h, 10 µM came to 93.3%.

For `CC1CCCCN1CCCNC(=O)c1ccc(-c2nc(-c3ccc(C#N)cc3)cnc2N)cc1` (stereo not shown) [CBK107139], the viability at 28.5 h, 10 µM worked out at 111%.

Take `Cc1cc(C(C)(C)C)cc(C)c1S(=O)(=O)NCCSCCN` [CBK013357]: the viability at 28.5 h, 10 µM is 97.8%.

As to `CCOC(=O)c1ccc(-n2c(CCC(=O)O)ccc2-c2cccs2)cc1O` [CBK266015], the viability at 28.5 h, 10 µM is 103%.

On to `CCCCN(C=O)c1c(CC)nc2c(OCCOc3ccc(F)cc3)cccn12` [CBK147631], for which the viability at 28.5 h, 10 µM came to 92.7%.

For `COc1ccc(C2C(C(=O)Nc3ccc(C)cc3)=C(C)Nc3ncnn32)cc1OC` (stereo not shown) [CBK294416], the viability at 28.5 h, 10 µM was 90.9%.

`Cc1ccn(CCNC(=O)C(C)Cc2cccs2)n1` (stereo not shown) [CBK281625]: the viability at 28.5 h, 10 µM was 106%.

What is called viability is a read-out of living cells in per cent, often relative to untreated cells.
